These are literature values, as cited in paper PMC7481482, “Development of Anthraquinone Derivatives as Ectonucleoside Triphosphate Diphosphohydrolase (NTPDase) Inhibitors With Selectivity for NTPDase2 and NTPDase3” (Frontiers in Pharmacology, 2020).

SMILES strings stand for the structures.

As usually defined, the Ki is a dissociation constant, usually derived from enzyme kinetics or from competition with a known ligand.

The target of one data set is NTPDase1. Also on record: method as in Lecka et al., 2013. To be noted: ref Lecka et al., 2013; cited from earlier work.
The target of another data set is T1, human NTPDase2 (Homo sapiens, UniProt Q9Y5L3).
T1 construct: expressed in transfected cells; host or cells: COS-7 cells (membrane preparation)
T1 sequence (Q9Y5L3 1-495): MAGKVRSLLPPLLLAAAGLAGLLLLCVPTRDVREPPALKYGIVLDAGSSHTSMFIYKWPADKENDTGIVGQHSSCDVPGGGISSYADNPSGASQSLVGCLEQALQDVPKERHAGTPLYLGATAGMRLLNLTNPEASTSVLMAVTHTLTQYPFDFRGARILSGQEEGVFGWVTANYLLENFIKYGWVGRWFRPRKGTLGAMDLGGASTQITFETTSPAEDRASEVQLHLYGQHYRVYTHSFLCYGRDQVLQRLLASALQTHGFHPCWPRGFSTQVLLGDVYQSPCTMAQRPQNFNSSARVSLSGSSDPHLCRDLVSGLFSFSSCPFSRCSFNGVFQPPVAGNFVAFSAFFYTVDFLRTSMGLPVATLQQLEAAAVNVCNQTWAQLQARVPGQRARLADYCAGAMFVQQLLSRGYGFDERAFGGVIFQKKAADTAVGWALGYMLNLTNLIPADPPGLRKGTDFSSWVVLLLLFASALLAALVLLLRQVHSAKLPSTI
To be noted: ref Lévesque et al., 2007; cited from earlier work.

The next data set has as its target T2, human NTPDase8 (Homo sapiens, UniProt Q5MY95).
T2 construct: expressed in transfected cells; host or cells: COS-7 cells (membrane preparation)
T2 sequence (Q5MY95 1-495): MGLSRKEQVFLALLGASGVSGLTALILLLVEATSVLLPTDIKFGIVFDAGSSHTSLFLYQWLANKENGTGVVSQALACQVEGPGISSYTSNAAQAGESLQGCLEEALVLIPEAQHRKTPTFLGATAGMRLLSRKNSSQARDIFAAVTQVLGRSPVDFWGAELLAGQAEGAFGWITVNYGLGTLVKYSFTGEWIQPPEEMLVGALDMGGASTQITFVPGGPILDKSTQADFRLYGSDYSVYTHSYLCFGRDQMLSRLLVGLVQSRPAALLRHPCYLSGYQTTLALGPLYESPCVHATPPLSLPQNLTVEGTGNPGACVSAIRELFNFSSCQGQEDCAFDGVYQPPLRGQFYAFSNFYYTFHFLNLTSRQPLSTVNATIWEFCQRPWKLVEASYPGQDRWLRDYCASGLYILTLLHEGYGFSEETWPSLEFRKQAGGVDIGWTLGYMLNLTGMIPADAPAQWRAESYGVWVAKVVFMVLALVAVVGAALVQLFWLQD
Also on record: method as in Lévesque et al., 2007. To be noted: ref Lévesque et al., 2007; cited from earlier work.

Consider `CCCCSc1nc2c(N)ncnc2n1[C@@H]1O[C@H](COP(=O)(O)OP(=O)(O)OP(=O)(O)O)[C@@H](O)[C@H]1O` [8-BuS-ATP], for which the Ki at NTPDase1 is 800 nM.

For the compound `CCN(CC)c1ncnc2c1ncn2[C@@H]1O[C@H](COP(=O)(O)OP(=O)(O)C(Br)(Br)P(=O)(O)O)[C@@H](O)[C@H]1O` [ARL67156], at human NTPDase2, the “inhibition of human NTPDase2 (in words)” value is reported as “does not inhibit”. Moreover, at human NTPDase8, the “inhibition of human NTPDase8 (in words)” value is “does not inhibit”.
